Entries after “also recorded” stand apart in the source; their conditions may differ. Starred links: 1 amine or outer side, 2 acyl side, 3 side chain; linkers in the order of their positions; H or OH if unused. Non-standard residues stand in square brackets, D forms with d. Residues, ends and D or L forms follow the SMILES beside them. X1 = O=C(C(Cc1ccc(/N=N/c2ccccc2)cc1)N[*:1])[*:2]
Columns and labels:
[1] = Evaluation of droplet stability (phase-contrast microscope); settings: 1 wt % compound, 5 wt % DEX550k, 5 wt % PEG35k
Description: A mixed aqueous solution including 5 wt % dextran (550 kDa; DEX550k), 0.002 wt % rhodamine-DEX550k, and 5 wt % polyethylene glycol (35 kDa; PEG35k) was produced in a microtube. Next, the compound (P1) was added to the mixed aqueous solution to be 1 wt % thereof, dissolved, and stirred for 1 minute using a vortex. Due to this, liquid-liquid phase-separated droplets were produced.
Liquid-liquid phase-separated droplets were produced by the same method as in <Droplet Production Example 1>. After production of the droplets, the droplets were left to stand for 24 hours and the state of the droplets was observed using a phase-contrast microscope.
Liquid-liquid phase-separated droplets were produced by the same method as in <Droplet Production Example 1>. After production of the droplets, the droplets were left to stand for 16 days and the state of the droplets was observed using a phase-contrast microscope.

[2] = Droplet fusion and control by light irradiation
Description: A mixed aqueous solution including 5 wt % DEX550k and 5 w % PEG35k was produced in a microtube. Next, the compound (P1) was added to the mixed aqueous solution to be 1 wt % thereof, dissolved, and stirred for 1 minute using a vortex. […] The produced droplets were position-selectively irradiated with 350 nm light for 6 minutes. The droplet dispersion liquid was placed in a transparent cell having a depth of 1 mm and light irradiation was performed using a fluorescence microscope (Olympus IX-73). A U-HGLGPS (brightness: 130 W) was used as the light source for the fluorescence microscope and light was irradiated with a brightness output setting of 25%.
To observe the localization of the compound (P), the compound (P1) was labeled using Cy5. A mixed aqueous solution including 5 wt % dextran (550 kDa; DEX550k) and 5 wt % polyethylene glycol (35 kDa; PEG35k) was produced in a microtube. Next, the Cy5-labeled compound (P1) was added to the mixed aqueous solution to be 1 wt % thereof, dissolved, and stirred for 1 minute using a vortex. […] The droplets were irradiated with 350 nm light for 5 seconds. The droplet dispersion liquid was placed in a transparent cell having a depth of 1 mm and light irradiation was performed using a fluorescence microscope (Olympus IX-73). A U-HGLGPS (brightness: 130 W) was used as the light source for the fluorescence microscope and light was irradiated with a brightness output setting of 25%. Before and after light irradiation, the droplets were observed using a phase-contrast microscope (Olympus IX-73 connected to a phase-contrast light source) and a fluorescence microscope (Olympus IX-73 connected to a fluorescence light source U-HGLGPS).
A mixed aqueous solution including 5 wt % dextran (550 kDa; DEX550k) and 5 wt % polyethylene glycol (35 kDa; PEG35k) was produced in a microtube. Next, the labeled compound (P1) was added to the mixed aqueous solution to be 1 wt % thereof, dissolved, and stirred for 1 minute using a vortex. […] The droplets were subjected to any of the following light irradiation operations (1) to (3). The light irradiation was performed in the same manner as described above. • (1) No light irradiation. • (2) Irradiation with 350 nm light for 5 seconds. • (3) Irradiation with 350 nm light for 5 seconds, followed by irradiation with 550 nm light for 5 seconds.
The droplets were observed under a phase-contrast microscope before and after carrying out the light irradiation operation under the above-described conditions. In (1), an image “before carrying out the light irradiation operation” was taken and then an image “after carrying out the light irradiation operation” was taken within 1 minute. No light irradiation was performed between “before carrying out the light irradiation operation” and “after carrying out the light irradiation operation”. In (2), an image “after carrying out the light irradiation operation” was taken immediately after 5 seconds of irradiation with 350 nm light. In (3), 350 nm light was irradiated for 5 seconds, immediately followed by irradiating 550 nm light for 5 seconds, and an image “after carrying out the light irradiation operation” was taken immediately after the 550 nm light was irradiated for 5 seconds.
A mixed aqueous solution including 5 wt % DEX550k and 5 w % PEG35k was produced in a microtube. Next, the compound (P2) was added to the mixed aqueous solution to be 1 wt % thereof, dissolved, and stirred for 1 minute using a vortex. […] The produced droplets were irradiated with 350 nm light for 5 seconds. The droplet dispersion liquid was placed in a transparent cell having a depth of 1 mm and light irradiation was performed using a fluorescence microscope (Olympus IX-73).

[3] = Reversible gel-sol transition by light irradiation (test tube); type: physicochemical
Description: The compound (P1) was dispersed in a D-MEM buffer solution (4 mM HEPES, containing 1 wt % NaHCO3, pH 8.5) to produce a dispersion liquid including 1.0 wt % of the compound (P1). The dispersion liquid was placed in a test tube to observe the gel-sol transition caused by light irradiation. Incubation after the start of light irradiation was performed at 37° C. in a 5% CO2 atmosphere.
This dispersion liquid was placed in a test tube to observe the changes in gelation and solation caused by light irradiation. After the start of light irradiation, incubation was performed at 37° C. in a 5% CO2 atmosphere.

[4] = Photoresponsiveness (UV-vis absorption spectrum after light irradiation); type: physicochemical; settings: 1 wt % dispersion in D-MEM with 4 mM HEPES, 25° C.; P1: 350 nm / 450 nm; P3: 540 nm / 450 nm
Description: The compound (P1) was dispersed in a D-MEM buffer solution including 4 mM HEPES to produce a dispersion liquid including 1 wt % of the compound (P1). This dispersion liquid was placed in a transparent cell having a depth of 1 mm and irradiated with light using a fluorescence microscope (Olympus IX-73). A U-HGLGPS (brightness: 130 W) was used as the light source for the fluorescence microscope and light was irradiated with a brightness output setting of 25%. The absorption spectrum and circular dichroism (CD) spectrum of the dispersion liquid after light irradiation were measured by ultraviolet-visible light spectroscopy. The measurements were performed at room temperature (25° C.).
This dispersion liquid was irradiated with 450 nm or 550 nm light and the absorption spectrum was analyzed by ultraviolet-visible spectroscopy (UV-vis) (JASCO V-650 spectrophotometer). Measurements were performed at room temperature (25° C.).

[5] = TEM analysis of dispersion liquid; type: physicochemical; settings: 1.0 wt % dispersion, irradiated with 450 nm light
Description: (§1) This dispersion liquid was incubated for 3 days in a dark place at 37° C. in a 5% CO2 atmosphere. Thereafter, the dispersion liquid was irradiated with 450 nm light and analyzed with a transmission electron microscope (JEOL JEM-1400).
as §1, with “nm or 550 nm” for “nm”, “absorption spectrum analysis was performed by infrared absorption spectroscopy analysis (IR) (JASCO FTIR-6100) and analysis was performed using” for “analyzed with”

[6] = Rheological evaluation (storage modulus G' and loss modulus G'', rotational rheometer); type: physicochemical; settings: trans form, 1.0 wt % in D-MEM buffer pH 8.5, incubated 3 days at 37° C. in dark
Description: The trans form of the compound (P1) was dispersed in a D-MEM buffer solution (4 mM HEPES, containing 1 wt % NaHCO3, pH 8.5) to produce a dispersion liquid including 1.0 wt % of the compound (P1). This dispersion liquid was incubated for 3 days in a dark place at 37° C. in a 5% CO2 atmosphere. Thereafter, the storage modulus G′ and loss modulus G″ were measured using a rotational rheometer (Malvern Panalytical, Kinexus lab+).
This dispersion liquid was incubated for 3 days in a dark place at 37° C. in a 5% CO2 atmosphere. The storage modulus G′ and loss modulus G″ were then measured using a rotational rheometer (Malvern Panalytical, Kinexus lab+).

[7] = 1 wt % compound, 350 nm light for 5 seconds

| Compound | time for which droplets were stably maintained ([1]; left to stand 24 hours) [h] | time after which droplets were still stably maintained ([1]; left to stand 16 days) [days] | change of droplets after 350 nm light [2, 7] | droplet fusion in light irradiated spot ([2]; 1 wt % compound, position-selective 350 nm light for 6 minutes) | change of droplets after 350 nm then 550 nm light ([2]; 1 wt % labeled compound, 350 nm light 5 seconds, then 550 nm light 5 seconds) | change of droplets, no light irradiation ([2]; 1 wt % labeled compound, operation (1) no light irradiation) | state of droplet dispersion liquid before irradiation with 350 nm light ([2]; Cy5-labeled compound, 1 wt %) | state of droplet dispersion liquid after irradiation with 350 nm light ([2]; Cy5-labeled compound, 1 wt %, 350 nm light for 5 seconds) | state of dispersion liquid at start of light irradiation, cis form ([3]; 1.0 wt % in D-MEM buffer pH 8.5, 0 min) | state of dispersion liquid at start of light irradiation, trans form ([3]; 1.0 wt % in D-MEM buffer pH 8.5, 0 min / before irradiation) | state of trans-form dispersion liquid after 350 nm light ([3]; 1.0 wt %, 350 nm light for 15 minutes, 37° C., 5% CO2) | state of cis-form dispersion liquid after 450 nm light ([3]; 1.0 wt %, 450 nm light for 15 minutes, 37° C., 5% CO2) | photoisomerization of azobenzene structure on light irradiation [4] | structure in TEM image, trans form [5] | gel formation (G' versus G'') [6] |
| --- | --- | --- | --- | --- | --- | --- | --- | --- | --- | --- | --- | --- | --- | --- | --- |
| CSCCC(NC(=O)C(CCCNC(=N)N)NC(=O)C(C)NC(=O)C(CC(=O)O)NC(=O)C(Cc1ccc(/N=N/c2ccccc2)cc1)NC(=O)C(CCCNC(=N)N)NC(C)=O)C(=O)NC(CCCNC(=N)N)C(N)=O (stereo not shown) [Compound (P1)] (Ac-R[X1]DARMR-NH2; configuration not given here) | ≥ 24 | ≥ 16 | droplets which were larger than before the light irradiation were observed; also recorded: the size of the droplets significantly increased | a larger droplet was formed | the number of droplets decreased and the size of the droplets increased | no change was seen in the size of the droplets | gel state | sol state | underwent solation | underwent gelation | underwent solation | underwent gelation | reversibly isomerized from the trans form to the cis form and from the cis form to the trans form | formed a structure in a fibrous state | a gel was formed |
| CSCCC(NC(=O)C(CCCNC(=N)N)NC(C)=O)C(=O)NC(CC(=O)O)C(=O)NC(C)C(=O)NC(CCCNC(=N)N)C(=O)NC(Cc1ccc(/N=N/c2ccccc2)cc1)C(=O)NC(CCCNC(=N)N)C(N)=O (stereo not shown) [Compound (P2)] (Ac-RMDAR[X1]R-NH2; configuration not given here) | – | – | larger droplets were formed | – | – | – | – | – | – | – | – | – | – | – | – |
